Experimental data: patent US9315451B2, “Tetracycline compounds” (priority 2009, dated 2016)
Like-named read-outs stand apart in the source and are kept apart here.

Tested on: S. aureus Smith (ATCC 13709)
Assay: Mouse systemic infection (septicemia) model, S. aureus Smith
Assay type: in vivo
Settings: Staphylococcus aureus, CD-1 female mice; for responders at 3 mg/kg: ATCC13709, iv, IV 3 mg/kg one hour post infection, read-out: SA Smith septicemia survival IV (3 mg/kg); for responders at 3 mg/kg / responders at 30 mg/kg: 48 h, survival at 48 hours; for responders at 30 mg/kg: ATCC13709, po, PO 30 mg/kg one hour post infection, read-out: SA Smith septicemia survival PO (30 mg/kg); for ED50: ATCC13709, dose that prevents 50% of the mice from death, 48 hours
Procedure: Mouse Systemic Infection Protocol-S. aureus Smith Septicemia
Compounds were screened for antibacterial activity in vivo in a mouse systemic infection (septicemia) model. In the model, CD-1 female mice (18-22 grams) were injected IP with a S. aureus Smith (ATCC 13709) inoculum that results in 0% survival within 24 to 48 hours. The bacterial dose required to achieve this effect was previously established through virulence studies. At one hour post infection, mice received either […] IV or […] PO. Typically, six mice were treated per dose group. Animal survival was assessed and recorded for 48 hours. Percent survival at 48 hours was recorded and PD50 (mg/kg) was determined for each compound tested.

[1] = IV, read-out: SA Smith septicemia PD50 IV
[2] = PO, read-out: SA Smith septicemia PD50 PO

| Structure (SMILES) | responders at 3 mg/kg | responders at 30 mg/kg | ED50 [1] | ED50 [2] |
| --- | --- | --- | --- | --- |
| CC(C)[C@@H](C)NCc1cc(O)c2c(c1Cl)C[C@H]1C[C@H]3[C@H](N(C)C)C(O)=C(C(N)=O)C(=O)[C@@]3(O)C(O)=C1C2=O [Compound S15-13-8] | 67% | 50% | – | – |
| CN(C)[C@@H]1C(O)=C(C(N)=O)C(=O)[C@@]2(O)C(O)=C3C(=O)c4c(O)cc(CN5CCC(C6CC6)CC5)c(F)c4C[C@H]3C[C@@H]12 [Compound S1-14-134] | 50% | 17% | – | – |
| CN(C)[C@@H]1C(O)=C(C(N)=O)C(=O)[C@@]2(O)C(O)=C3C(=O)c4c(O)cc(C(C)(C)N(C)CC5CCCC5)c(F)c4C[C@H]3C[C@@H]12 [Compound S27-9-5] | 83% | 67% | – | – |
| C[C@H]1CCCN1Cc1cc(O)c2c(c1C(F)(F)F)C[C@H]1C[C@H]3[C@H](N(C)C)C(O)=C(C(N)=O)C(=O)[C@@]3(O)C(O)=C1C2=O [Compound S25-11-48] | 100% | 100% | – | – |
| CN(C)[C@@H]1C(O)=C(C(N)=O)C(=O)[C@@]2(O)C(O)=C3C(=O)c4c(O)cc(CN(C)C5(C6CC6)CC5)c(F)c4C[C@H]3C[C@@H]12 [Compound S2-4-60] | 17% | 33% | – | – |
| CN(C)[C@@H]1C(O)=C(C(N)=O)C(=O)[C@@]2(O)C(O)=C3C(=O)c4c(O)cc(CN5CCC(C)(C)CC5)c(Cl)c4C[C@H]3C[C@@H]12 [Compound S15-13-16] | 33% | 17% | – | – |
| CN(C)c1c(CNC2C3CC4CC(C3)CC2C4)cc(O)c2c1C[C@H]1C[C@H]3[C@H](N(C)C)C(O)=C(C(N)=O)C(=O)[C@@]3(O)C(O)=C1C2=O (some centres unmarked) [Compound S16-10-18] | 17% | 0% | – | – |
| CCN(Cc1cc(O)c2c(c1F)C[C@H]1C[C@H]3[C@H](N(C)C)C(O)=C(C(N)=O)C(=O)[C@@]3(O)C(O)=C1C2=O)C(C)(C)CC [Compound S2-4-33] | 67% | 33% | – | – |
| CCC1(CNCc2cc(O)c3c(c2F)C[C@H]2C[C@H]4[C@H](N(C)C)C(O)=C(C(N)=O)C(=O)[C@@]4(O)C(O)=C2C3=O)CCC1 [Compound S1-14-91] | 17% | 60% | – | – |
| CC(C)[C@@H](C)N(C)Cc1cc(O)c2c(c1F)C[C@H]1C[C@H]3[C@H](N(C)C)C(O)=C(C(N)=O)C(=O)[C@@]3(O)C(O)=C1C2=O [Compound S2-4-57] | 50% | 33% | – | – |
| CN(C)[C@@H]1C(O)=C(C(N)=O)C(=O)[C@@]2(O)C(O)=C3C(=O)c4c(O)cc(CNC5Cc6ccccc6C5)c(F)c4C[C@H]3C[C@@H]12 [Compound S1-14-90] | 33% | 0% | – | – |
| CN(C)[C@@H]1C(O)=C(C(N)=O)C(=O)[C@@]2(O)C(O)=C3C(=O)c4c(cc(F)c(CNCC(C)(C)C)c4O)C[C@H]3C[C@@H]12 [Compound S19-8-1] | 100% | 100% | 0.36 mg/kg | 12.2 mg/kg |
| CN(C)[C@@H]1C(O)=C(C(N)=O)C(=O)[C@@]2(O)C(O)=C3C(=O)c4c(O)cc(CN[C@@H]5CC6CCC5C6)c(Cl)c4C[C@H]3C[C@@H]12 (some centres unmarked) [Compound S15-13-23] | 83% | 50% | – | – |
| CN(C)[C@@H]1C(O)=C(C(N)=O)C(=O)[C@@]2(O)C(O)=C3C(=O)c4c(O)cc(CNCC56CC7CC(CC(C7)C5)C6)c(F)c4C[C@H]3C[C@@H]12 [Compound S1-14-25] | 33% | 17% | – | – |
| CC(C)[C@@H](C)NCc1cc(O)c2c(c1C(F)(F)F)C[C@H]1C[C@H]3[C@H](N(C)C)C(O)=C(C(N)=O)C(=O)[C@@]3(O)C(O)=C1C2=O [Compound S25-11-171] | 83% | 17% | – | – |
| CN(Cc1cc(O)c2c(c1F)C[C@H]1C[C@H]3[C@H](N(C)C)C(O)=C(C(N)=O)C(=O)[C@@]3(O)C(O)=C1C2=O)CC(C)(C)C [Compound S2-4-21] | 16% | 0% | – | – |
| COc1c(CN2CCCC2(C)C)cc(O)c2c1C[C@H]1C[C@H]3[C@H](N(C)C)C(O)=C(C(N)=O)C(=O)[C@@]3(O)C(O)=C1C2=O [Compound S24-9-10] | 100% | 100% | – | – |
| CN(C)[C@@H]1C(O)=C(C(N)=O)C(=O)[C@@]2(O)C(O)=C3C(=O)c4c(O)cc(CN5CCCCC5(C)C)c(F)c4C[C@H]3C[C@@H]12 [Compound S6-4-1] | 100% | 100% | – | – |

| Structure (SMILES) | responders at 3 mg/kg | responders at 30 mg/kg | ED50 [1] | ED50 [2] |
| --- | --- | --- | --- | --- |
| CN(C)[C@@H]1C(O)=C(C(N)=O)C(=O)[C@@]2(O)C(O)=C3C(=O)c4c(O)cc(CN5CCC6(CC5)CC6)c(F)c4C[C@H]3C[C@@H]12 [Compound S1-14-128] | 100% | 100% | – | – |
| CN(C)[C@@H]1C(O)=C(C(N)=O)C(=O)[C@@]2(O)C(O)=C3C(=O)c4c(O)cc(CNCC(C)(C)C)c(Cl)c4C[C@H]3C[C@@H]12 [Compound S15-13-5] | 50% | 17% | – | – |
| CCN(Cc1cc(O)c2c(c1F)C[C@H]1C[C@H]3[C@H](N(C)C)C(O)=C(C(N)=O)C(=O)[C@@]3(O)C(O)=C1C2=O)C1(C)CCCC1 [Compound S1-14-73] | 50% | 75% | – | – |
| C[C@@H]1CC[C@H](C)N1Cc1cc(O)c2c(c1Cl)C[C@H]1C[C@H]3[C@H](N(C)C)C(O)=C(C(N)=O)C(=O)[C@@]3(O)C(O)=C1C2=O [Compound S15-13-203] | 100% | 100% | – | – |
| CN(C)[C@@H]1C(O)=C(C(N)=O)C(=O)[C@@]2(O)C(O)=C3C(=O)c4c(O)cc(CN5CCCCC5)c(C(F)(F)F)c4C[C@H]3C[C@@H]12 [Compound S25-11-68] | 50% | 83% | – | – |
| CN(C)[C@@H]1C(O)=C(C(N)=O)C(=O)[C@@]2(O)C(O)=C3C(=O)c4c(O)cc(CN(CC5CC5)C5CC5)c(F)c4C[C@H]3C[C@@H]12 [Compound S2-4-41] | 0% | 0% | – | – |
| CC(C)CN(C)C(C)(C)c1cc(O)c2c(c1Cl)C[C@H]1C[C@H]3[C@H](N(C)C)C(O)=C(C(N)=O)C(=O)[C@@]3(O)C(O)=C1C2=O [Compound S27-9-7] | 17% | 33% | – | – |
| CN(C)[C@@H]1C(O)=C(C(N)=O)C(=O)[C@@]2(O)C(O)=C3C(=O)c4c(O)cc(CN5CC[C@H](F)C5)c(Cl)c4C[C@H]3C[C@@H]12 [Compound S15-13-226] | 100% | 83% | – | – |
| CN(C)[C@@H]1C(O)=C(C(N)=O)C(=O)[C@@]2(O)C(O)=C3C(=O)c4c(O)cc(CNC(C)(C)CC(C)(C)C)c(F)c4C[C@H]3C[C@@H]12 [Compound S2-4-7] | 67% | 17% | – | – |
| CN(C)C(=O)C(C)(C)N(C)Cc1cc(O)c2c(c1Cl)C[C@H]1C[C@H]3[C@H](N(C)C)C(O)=C(C(N)=O)C(=O)[C@@]3(O)C(O)=C1C2=O [Compound S15-13-227] | 17% | 0% | – | – |
| CN(C)[C@@H]1C(O)=C(C(N)=O)C(=O)[C@@]2(O)C(O)=C3C(=O)c4c(O)cc(CNCc5ccccc5)c(F)c4C[C@H]3C[C@@H]12 [Compound S1-14-105] | 67% | 0% | – | – |
| CN(C)[C@@H]1C(O)=C(C(N)=O)C(=O)[C@@]2(O)C(O)=C3C(=O)c4c(O)cc(CN5CC6CCCCC6C5)c(Cl)c4C[C@H]3C[C@@H]12 (some centres unmarked) [Compound S15-13-117] | 33% | 20% | – | – |
| C[C@H]1CCC[C@H](C)N1Cc1cc(O)c2c(c1Cl)C[C@H]1C[C@H]3[C@H](N(C)C)C(O)=C(C(N)=O)C(=O)[C@@]3(O)C(O)=C1C2=O [Compound S15-13-225] | 100% | 100% | – | – |
| CCN(Cc1cc(O)c2c(c1F)C[C@H]1C[C@H]3[C@H](N(C)C)C(O)=C(C(N)=O)C(=O)[C@@]3(O)C(O)=C1C2=O)C1(C)CC1 [Compound S1-14-36] | 33% | 0% | – | – |
| CN(C)[C@@H]1C(O)=C(C(N)=O)C(=O)[C@@]2(O)C(O)=C3C(=O)c4c(O)cc(CNC56CC7CC(CC(C7)C5)C6)c(F)c4C[C@H]3C[C@@H]12 [Compound S1-14-4] | 100% | 0% | – | – |
| CN(Cc1ccccc1)Cc1cc(O)c2c(c1F)C[C@H]1C[C@H]3[C@H](N(C)C)C(O)=C(C(N)=O)C(=O)[C@@]3(O)C(O)=C1C2=O [Compound S1-14-46] | 0% | 0% | – | – |
| CN(C)[C@@H]1C(O)=C(C(N)=O)C(=O)[C@@]2(O)C(O)=C3C(=O)c4c(O)cc(CN[C@H]5CC6CCC5C6)c(C(F)(F)F)c4C[C@H]3C[C@@H]12 (some centres unmarked) [Compound S25-11-12] | 0% | 20% | – | – |
| CCN(Cc1cc(O)c2c(c1F)C[C@H]1C[C@H]3[C@H](N(C)C)C(O)=C(C(N)=O)C(=O)[C@@]3(O)C(O)=C1C2=O)CC(C)C [Compound S2-4-50] | – | – | 1 mg/kg | 10.1 mg/kg |
